Measurements as given in patent US8609695B2, “Methods of treating and/or suppressing insulin resistance” (Endorecherche, Inc., priority 1999, dated 2013).
Structures can show the parent of a compound that is named as a salt. Blank lines part the entries; values can stand above or below the compound they belong to.

Key:
[1] = test system: human endometrial adenocarcinoma Ishikawa cells; assay: Alkaline phosphatase activity in Ishikawa cells (Example 11); assay type: cell-based; settings: for Stimulation of alkaline phosphatase by tested compounds % of 1 nM E2 stimulation: intrinsic estrogenic activity; for IC50: Homo sapiens, Ishikawa, 120 h, read-out: Inhibition of 1 nM E2 stimulation of alkaline phosphatase by tested compounds IC50
Protocol: The human Ishikawa cell line derived from a well differentiated endometrial adenocarcinoma was kindly provided by Dr. Erlio Gurpide, The Mount Sinai Medical Center, New York, N.Y. The Ishikawa cells were routinely maintained in Eagle's Minimum Essential Medium (MEM) containing 5% (vol/vol) FBS and supplemented with 100 U/ml penicillin, 100 μg/ml streptomycin, 0.1 mM Non-essential Amino Acids solution. Cells were plated in Falcon T75 flasks at a density of 1.5×10^6 cells at 37 C.
Twenty four hours before the start of an experiment, the medium of near confluent Ishikawa cells was replaced by fresh estrogen-free basal medium (EFBM) consisting of a 1:1 (v:v) mixture of phenol red-free Ham's F-12 and Dulbecco's Modified Eagle's Medium (DMEM) supplemented with 100 U/mL penicillin, 100 μg/mL Streptomycin, 2 mM glutamine, and 5% FBS treated twice with dextran-coated charcoal to remove endogenous steroids. Cells were then harvested by 0.1% pancreatin (Sigma) and 0.25 mM HEPES, resuspended in EFBM and plated in Falcon 96 well flat-bottomed microtiter plates at a density of 2.2×10^4 cells/well in a volume of 100 μl and allowed to adhere to the surface of the plates for 24 h. Thereafter, medium was replaced with fresh EFBM containing the indicated concentrations of compounds in a final volume of 200 μl. Cells were incubated for five days, with a medium change after 48 h.
At the end of the incubation period, microtiter plates were inverted and growth medium was decanted. The plates were rinsed with 200 μL by well of PBS (0.15M NaCl, 10 mM sodium phosphate, pH 7.4). PBS was then removed from the plates while carefully leaving some residual PBS, and the wash procedure was repeated once. The buffered saline was then decanted, and the inverted plates were blotted gently on a paper towel. Following replacement of the covers, the plates were placed at −80 C for 15 min followed by thawing at room temperature for 10 min. The plates were then placed on ice, and 50 μl of an ice-cold solution containing 5 mM p-nitrophenyl phosphate, 0.24 mM MgCl2, and 1 M diethanolamine (pH 9.8) was added. Plates were then warmed to room temperature, and the yellow color from the production of p-nitrophenyl was allowed to develop (8 min). Plates were monitored at 405 nm in an enzyme-linked immunosorbent assay plate reader (BIO-RAD, model 2550 EIA Reader).
Dose-response curves as well as IC50 values were calculated using a weighted iterative nonlinear squares regression.

[2] = test system: ovariectomized female rats; assay: Uterine weight, fat and lipid, 20-day treatment (Example 13); assay type: in vivo, Rattus norvegicus; settings: 20 days
Protocol: The objective of this study was to compare the effect on uterine, weight, fat and blood lipids following treatment with EM-652.HCl, ERA-923 and lasofoxifene, administered alone or in combination with EM-652.HCl, to ovariectomized female rats. For this purpose, each compound was administered orally for 20 days to ovariectomized female rats and at the end of the treatment period, the uterus and fat were collected and weighed.
d) Diet: • Certified Rodent feed (Lab Diet #5002, pellets) and tap water were provided ad libitum. Randomization:
Seventy rats were separated into 7 groups of 9 to 11 animals for conduct of the study outlined below:
Animals from groups 2 to 9 were ovariectomized under Isoflurane-induced anesthesia on Day 7 of the study.
The vehicle or tested compounds were given as suspension in 0.4% methylcellulose by oral gavage (0.5 ml/gavage/rat) from Day 2 to Day 21 of the study.
Rats were weighed on Study Day 1 and at the necropsy (SD 22).
Approximately 24 hours after the last dosing, overnight fasted rats under Isoflurane-induced anesthesia were killed by exsanguination at the abdominal aorta.
Uteri and retroperitonal adipose tissue were removed and weighed.

[3] = test system: ovariectomized female rats; assay: SERM comparison, energy balance and lipid-lipoprotein metabolism (Example 10); assay type: in vivo, Rattus norvegicus; settings: OVX rats, 20 days; for Serum insulin (in words): 0.5 mg/rat; for Brown adipose tissue Lipoprotein lipase activity / Brown adipose tissue weight / Cumulative food intake / Serum glucose / Serum insulin / Serum leptin / Serum total cholesterol / Serum triglycerides / Soleus muscle Lipoprotein lipase activity / Soleus muscle weight / Total weight / VastusLateralis muscle weight / White adipose tissue inguinal Lipoprotein lipase activity / White adipose tissue inguinal weight / White adipose tissue retroperitoneal Lipoprotein lipase activity / White adipose tissue retroperitoneal weight: high carbohydrate diet, 0.5 mg/rat oral gavage
Protocol: For this purpose, tested compounds were administered by oral gavage for 20 days (0.5 mg/rat for each compound; 0.5 ml/rat) in 0.4% methylcellulose to ovariectomized female rats.
d) Diet: • During acclimation period, rats received a certified rodent diet (Lab Diet #5002, pellet) and tap water ad libitum while during study period, they received a high carbonhydrate diet (diet #3) and tap water ad libitum. The diet was composed of (g/100 g): Corn starch, 31.2; Dextrose, 31.2; Casein, 20.0; corn oil, 6.4; dl-Methionine, 0.3; Vitamine mix, 1.0; AIN-76 mineral mix, 4.9; fiber, 5.0. Rats were fasted (with access to water only) around 07 h00 the morning of their necropsy Randomization:
Test group: Seventy-seven rats were assigned to 8 groups of 9-10 rats for conduct of the study outlined below.
On day 0 of the study, rats from group 2 to 8 were ovariectomized (by bilateral flank incision) under Isoflurane anesthesia. Rats from group 1 were sham-operated.
Rats were weighed on day 0 (surgery) and then, every 2 days during study period as well as on the day of necropsy.
Food consumption was evaluated every 2 days.
In order to determine the effect of treatments on fat percentage, body composition was measured on Day 17 of the study using dual energy x-ray absorptiometry (DEXA; QDR 4500A, Hologic, Waltham, Mass.).
On day 21 of the study, approximately 24 hours after the last dosing and 6 hours of fasting, animals under Ketamine-Xylazine anesthesia were killed by exsanguination at the abdominal aorta.
Blood lipids (Total cholesterol and Triglycerides) and glucose were measured on frozen serum samples using the Boehringer Mannheim Diagnostic Hitachi 911 Analyzer (Boehringer Mannheim Diagnostic Laboratory Systems). Circulating hormones and substrates (Insulin and leptin) were measured on serum sample using the following kits: • Insulin: Linco RIA kit • Leptin: Linco RIA kit Organs and Tissues Collected
The following tissues were collected and weighed: • Muscle (right soleus and right VLM), fat (right retroperitoneal and right inguinal), and brown adipose tissue.
A piece of ˜0.1 g of all tissues (except uterus and vagina) were frozen in liquid nitrogen and kept at −80 C for later determination of lipoprotein-lipase (LPL) activity.

[4] = test system: ovariectomized female rats; assay: 34-week treatment with ethynyl estradiol, EM-652.HCl, Raloxifene and DHEA, body fat (Example 7); assay type: in vivo, rat; settings: OVX rats, 34 weeks
Protocol: The objective of this study was to assess the effect of a combined treatment with EM-652.HCl, and DHEA on body fat and body weight parameters in ovariectomized rats. For this purpose, ovariectomized rats received daily administration of EM-652.HCl (1 mg/kg), and DHEA (80 mg/kg) alone or in combination, for 34 weeks. EM-652.HCl was administered orally while DHEA was applied topically on dorsal skin. One group of animals was orally treated with 17-ethynylestradiol (0.1 mg/kg) and Raloxifene (EM-1105; 1 mg/kg) for comparison.
Ten to twelve week-old female Sprague-Dawley rats (Crl:CD(SD)Br) weighing approximately 235-250 g at start of treatment were used. Eighty rats were randomly distributed between 7 groups of 11 to 12 animals per group as follows: 1) Intact control; 2) OVX control; 3) OVX+EE2 (0.1 mg/kg); 4) OVX+raloxifene (1 mg/kg); 5) OVX+EM-652.HCl (1 mg/kg); 6) OVX+DHEA (80 mg/kg); 7) OVX+EM-652.HCl+DHEA. On day 1 of the study, the animals of the appropriate groups were bilaterally ovariectomized (OVX) under isoflurane anesthesia. EM-652.HCl, raloxifene and EE2 (Steraloids) were administered once daily by oral gavage as suspension in 0.4% methylcellulose (0.5 ml/rat) for 34 weeks while DHEA was applied topically once daily on dorsal skin as a solution in 50% ethanol-50% propylene glycol (0.5 ml/rat) for the same time period. Approximately 24 hours after the last dosing, overnight fasted animals were killed by exsanguination at the abdominal aorta under isoflurane anesthesia. Left and right retroperitoneal adipose tissues were collected and weighed.
After 34 weeks of treatment, individual rats under anesthesia with isoflurane had their whole body skeleton scanned using dual energy x-ray absorptiometry (DEXA; QDR 4500A, Hologic, Waltham, Mass.) and a Regional High Resolution Scan software. The body composition (including fat percentage) was determined.
Data were expressed as the means±SEM.

[5] = Ishikawa cells, five days incubation
[6] = OVX rats, commercial rodent diet, 0.5 mg oral, EM-652.HCl 2.5 mg in combinations
[7] = EE2 0.1, Raloxifene 1, EM-652.HCl 1 mg/kg oral, DHEA 80 mg/kg topical

- increase of uterine weight compared to OVX control ([2]; 0.5 mg): 62%
- Uterine Weight [2, 6]: 247.4 ± 9.1 mg
SMILES: Oc1ccc2c(c1)CC[C@H](c1ccccc1)[C@@H]2c1ccc(OCCN2CCCC2)cc1 [Lasofoxifene, cis-1R-[4′-pyrrolidino-ethoxyphenyl]-2S-phenyl-6-hydroxy-1,2,3,4,-tetrahydronapthalene D-(−)-tartrate salt]
- Stimulation of alkaline phosphatase by tested compounds % of 1 nM E2 stimulation [1, 5]: 18 % of 1 nM E2 stimulation
- OVX-induced increase in total serum cholesterol levels ([2]; 0.5 mg): completely prevented
- prevention of body weight increase induced by ovariectomy ([2]; OVX rats, 0.5 mg): 127%
- Cholesterol [2, 6]: 0.95 ± 0.09 mmol/L
- Final Body Weight [2, 6]: 210 ± 3 g
- Serum insulin (in words) [3]: decreased
- Brown adipose tissue Lipoprotein lipase activity [3]: 982 ± 98 μU/g protein
- Brown adipose tissue weight [3]: 0.244 ± 0.022 g
- Cumulative food intake [3]: 283 ± 14 g
- Serum glucose [3]: 15.8 ± 1.3 mmol/L
- Serum insulin [3]: 0.095 ± 0.017 nmol/L
- Serum leptin [3]: 0.97 ± 0.29 ng/mL
- Serum total cholesterol [3]: 1.29 ± 0.06 mmol/L
- Serum triglycerides [3]: 0.81 ± 0.21 mmol/L
- Soleus muscle Lipoprotein lipase activity [3]: 10.9 ± 1.5 μU/g protein
- Soleus muscle weight [3]: 0.096 ± 0.003 g
- Total weight [3]: 210 ± 2 g
- VastusLateralis muscle weight [3]: 0.800 ± 0.048 g
- White adipose tissue inguinal Lipoprotein lipase activity [3]: 801 ± 138 μU/g protein
- White adipose tissue inguinal weight [3]: 0.187 ± 0.023 g
- White adipose tissue retroperitoneal Lipoprotein lipase activity [3]: 1417 ± 163 μU/g protein
- White adipose tissue retroperitoneal weight [3]: 0.867 ± 0.132 g

- Inhibition of 1 nM E2 stimulation of alkaline phosphatase by tested compounds IC50 ([1]; Ishikawa cells, five days incubation, 1 nM E2, antiestrogenic activity): No inhibition
SMILES: CC/C(=C(\c1ccccc1)c1ccc(/C=C/C(=O)O)cc1)c1ccccc1 [GW-5638]
- Stimulation of alkaline phosphatase by tested compounds % of 1 nM E2 stimulation [1, 5]: 7.75 ± 5.5 (2) % of 1 nM E2 stimulation

- IC50 [1]: > 1 µM
SMILES: CC/C(=C(\c1ccc(I)cc1)c1ccc(OCCN2CCCC2)cc1)c1ccccc1 [Idoxifene]
- Stimulation of alkaline phosphatase by tested compounds % of 1 nM E2 stimulation [1, 5]: 25.1 ± 1.5 (5) % of 1 nM E2 stimulation

SMILES: C#C[C@]1(O)CC[C@H]2[C@@H]3CCc4cc(O)ccc4[C@H]3CC[C@@]21C [EE2, 17-ethynylestradiol]
- increment of body fat and retroperitoneal adipose tissue by ovariectomy [4]: prevented
- Fat % ([4]; DEXA, EE2 0.1, Raloxifene 1, EM-652.HCl 1 mg/kg oral, DHEA 80 mg/kg topical): 19.8 ± 1.9%
- Left retroperitoneal adipose tissue [4, 7]: 1.15 ± 0.18 g
- Right retroperitoneal adipose tissue [4, 7]: 1.29 ± 0.22 g

SMILES: CN(C)CCOc1ccc(/C(=C(/CCCl)c2ccccc2)c2ccc(O)cc2)cc1 [OH-Toremifene]
- Stimulation of alkaline phosphatase by tested compounds % of 1 nM E2 stimulation [1, 5]: 29.6 ± 2.1 (6) % of 1 nM E2 stimulation

SMILES: COc1ccc(-c2sc3cc(O)ccc3c2Oc2ccc(OCCN3CCCCC3)cc2)cc1.Cl [LY 353381]
- Serum insulin (in words) [3]: decreased
- Brown adipose tissue Lipoprotein lipase activity [3]: 888 ± 65 μU/g protein
- Brown adipose tissue weight [3]: 0.368 ± 0.031 g
- Cumulative food intake [3]: 312 ± 7 g
- Serum glucose [3]: 17.1 ± 0.7 mmol/L
- Serum insulin [3]: 0.104 ± 0.11 nmol/L
- Serum leptin [3]: 1.22 ± 0.21 ng/mL
- Serum total cholesterol [3]: 1.15 ± 0.08 mmol/L
- Serum triglycerides [3]: 1.23 ± 0.28 mmol/L
- Soleus muscle Lipoprotein lipase activity [3]: 10.1 ± 1.0 μU/g protein
- Soleus muscle weight [3]: 0.092 ± 0.002 g
- Total weight [3]: 231 ± 4 g
- VastusLateralis muscle weight [3]: 0.955 ± 0.20 g
- White adipose tissue inguinal Lipoprotein lipase activity [3]: 559 ± 165 μU/g protein
- White adipose tissue inguinal weight [3]: 0.290 ± 0.038 g
- White adipose tissue retroperitoneal Lipoprotein lipase activity [3]: 1365 ± 119 μU/g protein
- White adipose tissue retroperitoneal weight [3]: 0.968 ± 0.120 g

- IC50 [1]: 0.0319 ± 0.006 µM
SMILES: CC/C(=C(\c1ccc(O)cc1)c1ccc(OCCN(C)C)cc1)c1ccccc1 [OH-Tamoxifen]
- Stimulation of alkaline phosphatase by tested compounds % of 1 nM E2 stimulation [1, 5]: 32.4 ± 2.2 (8) % of 1 nM E2 stimulation

- IC50 [1]: 0.291 ± 0.115 µM
SMILES: CC/C(=C(/c1ccc(OCCN(C)C)cc1)c1cccc(O)c1)c1ccccc1 [Droloxifene]
- Stimulation of alkaline phosphatase by tested compounds % of 1 nM E2 stimulation [1, 5]: 23.8 ± 3.1 (7) % of 1 nM E2 stimulation
